From patent US10517889B2, “Modulators of SMAD7 expression” (Ionis Pharmaceuticals, Inc., priority 2017, dated 2019)
Strand notation (5' to 3'): a small letter for the sugar, then the base; units joined by * are phosphorothioate-linked, units joined directly phosphodiester-linked; [ ] holds rarer units or linkages, { } end groups; capitals alone tell only the bases. e = 2'-O-(2-methoxyethyl) (MOE); k = constrained ethyl (cEt); [5mC] = 5-methylcytosine; d = 2'-deoxy (DNA)

Key:
human SMAD7 mRNA [1] = experiment: Dose-dependent inhibition of human SMAD7 mRNA expression in Hep3B cells, comparison with ION 28453 (Example 4); format: cell-based; details: electroporation, approximately 16 hours
Experimental: Cells were plated at a density of 20,000 cells per well and transfected using electroporation with 0.25 μM, 0.74 μM, 2.22 μM, 6.67 μM, or 20.00 μM concentrations of antisense oligonucleotide, as specified in the Tables below. After a treatment period of approximately 16 hours, RNA was isolated from the cells and SMAD7 mRNA levels were measured by quantitative real-time PCR. Primer probe set RTS5062 was used to measure human SMAD7 mRNA levels. SMAD7 mRNA levels were adjusted according to total RNA content, as measured by RIBOGREEN®. Results are presented as percent inhibition of SMAD7 mRNa expression, relative to untreated control cells.
The half maximal inhibitory concentration (IC50) of each oligonucleotide is also presented. […] Several newly designed antisense oligonucleotides had greater potency than the previously disclosed lead compound, ION 28453.

human SMAD7 mRNA [2] = experiment: Antisense inhibition of human SMAD7 mRNA expression in Hep3B cells by 3-10-3 cEt gapmers, 10,000 nM, electroporation (Example 2); format: cell-based; details: SMAD7 mRNA, Hep3B cells, 10,000 nM antisense oligonucleotide, electroporation, approximately 24 hours, primer probe set RTS5062, relative to untreated control cells
Summary of the method: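 qRT-PCR (RTS5062) of SMAD7 mRNA, normalised to RIBOGREEN total RNA, gave percent inhibition relative to untreated controls. Hep3B cells at 20,000 per well received 10,000 nM oligonucleotide by electroporation, with ~24 h treatment.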

[3] = tested on: human peripheral blood mononuclear cells (PBMCs); experiment: Human PBMC activation assay, cytokine levels (IL-10, IL-6, MCP-1, TNF-α) in supernatant after 24 hours (Example 9); details: human PBMC supernatant after 24 hours
Experimental: Ionis SMAD7 oligonucleotides were tested in an in vitro assay for potential immunostimulatory properties in an in vitro human peripheral blood mononuclear cell (PBMC) activation assay.
Blood samples were collected from healthy human volunteers in heparinized vials and mixed well. Human PBMCs were isolated by gradient centrifugation using Ficoll-Histopaque. The cells were washed, counted and resuspended in medium. The PBMCs were plated in a 24-well culture plate and various concentrations of oligonucleotides were added to the media. An oligonucleotide historically known to promote an inflammatory response was used as a positive control, whereas an oligonucleotide known not to be pro-inflammatory was used as a negative control. […] The supernatants were collected after 24 hours and analyzed for cytokine levels using MSD platform.

murine Smad7 mRNA = experiment: Dose-dependent inhibition of murine Smad7 mRNA in bEND cells, electroporation (Example 5, Study 2); format: cell-based, mouse; details: electroporation; for % inhibition of SMAD7 mRNA expression: approximately 16 hours
Experimental: Many of the Ionis designed oligonucleotides as well as ION 736697/Mongersen are complementary to mouse Smad7 mRNA. […] After a treatment period of approximately 16 hours, the cells were washed and lyzed and RNA on 384-well Pall plates with DNase I treatment. Smad7 mRNA levels were measured by quantitative real-time PCR. Primer probe set RTS1114 (forward sequence […], designated herein as SEQ ID NO: 8; reverse sequence […], designated herein as SEQ ID NO: 9; probe sequence […], designated herein as SEQ ID NO: 10) was used to measure murine Smad7 mRNA levels. Smad7 mRNA levels were adjusted according to total RNA content, as measured by RIBOGREEN®. Results are presented as percent inhibition of Smad7 mRNA expression, relative to untreated control cells.
Many of the Ionis oligonucleotides had greater potency than ION 736697/Mongersen.

human SMAD7 mRNA [4] = experiment: Dose-dependent inhibition of human SMAD7 mRNA expression in A431 cells, oligonucleotide added without transfection (Example 5, Study 1); format: cell-based; details: approximately 48 hours
Experimental: The newly designed compounds disclosed herein are cEt-modified antisense oligonucleotides. […] The studies described below show a comparison of select cEt-modified gapmers and ION0736697/Mongersen.
A431 cells were plated in collagen I-coated 96-well plates in DMEM with […]. Immediately after plating, 0.08 μM, 0.25 μM, 0.74 μM, 2.22 μM, 6.67 μM, or 20.00 μM concentrations of antisense oligonucleotide were added. The plates were shaken briefly before incubating at 37° C. and 10% CO2. After a treatment period of approximately 48 hours, the cells were washed and lyzed and RNA on 384-well Pall plates with DNase I treatment. SMAD7 mRNA levels were measured by quantitative real-time PCR. Primer probe set RTS5062 was used to measure human SMAD7 mRNA levels. SMAD7 mRNA levels were adjusted according to total RNA content, as measured by RIBOGREEN®. Results are presented as percent inhibition of SMAD7 mRNA expression, relative to untreated control cells.
All Ionis oligonucleotides had greater potency than ION 736697/Mongersen.

human SMAD7 mRNA [5] = experiment: Dose-dependent inhibition of human SMAD7 mRNA expression in Hep3B cells (Example 3, Study 1 and 2); format: cell-based; details: electroporation; for % inhibition of SMAD7 mRNA expression: approximately 16 hours
Summary of the method: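 Hep3B cells, 20,000 per well, electroporated with antisense oligonucleotide at 0.31, 1.25, 5.00 or 20.00 μM (first series) or 0.74, 2.22, 6.67 or 20.00 μM (second series). After ~16 h, SMAD7 mRNA measured by RT-qPCR (RTS5062), normalised to RIBOGREEN total RNA. Percent inhibition vs untreated cells; IC50 derived.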

human SMAD7 mRNA [6] = experiment: Antisense inhibition of human SMAD7 mRNA expression in Hep3B cells by 5-10-5 MOE gapmers, single concentration, electroporation, RT-PCR (Example 1, Study 1 and 2); format: cell-based; details: 5-10-5 MOE gapmers targeting SEQ ID NO: 1 and 2
Summary of the method: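 Readout is percent SMAD7 mRNA inhibition versus untreated cells, measured by qRT-PCR (RTS5062) and corrected for total RNA by RIBOGREEN. Oligonucleotide, 5,000 nM or 15,000 nM, was delivered by electroporation into Hep3B cells at 20,000 per well. RNA was collected about 24 h later.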

[7] = 312.5 nM, Study 1, relative to untreated control cells

800821 (antisense kG*k[5mC]*kT*dA*dA*dA*dT*dT*dT*d[5mC]*d[5mC]*dA*dA*kT*kG*kA) [compound 800821]
% inhibition of SMAD7 mRNA expression (human SMAD7 mRNA [1]; 0.25 μM): 14% | % inhibition of SMAD7 mRNA expression (human SMAD7 mRNA [1]; 0.74 μM): 30% | % inhibition of SMAD7 mRNA expression (human SMAD7 mRNA [1]; 2.22 μM): 35% | % inhibition of SMAD7 mRNA expression (human SMAD7 mRNA [1]; 6.67 μM): 58% | % inhibition of SMAD7 mRNA expression (human SMAD7 mRNA [1]; 20.00 μM): 79% | IC50 (human SMAD7 mRNA [1]; SMAD7 mRNA): 4 µM | % Inhibition (human SMAD7 mRNA [2]): 56%

736697 (antisense GTCGCCCCTTCTCCCCGCAGC; chemistry not fully specified) [compound 736697]
Levels of IL-6 ([3]; 0.0128 μM oligonucleotide): 3.6 pg/mL | Levels of IL-10 ([3]; 0.0128 μM oligonucleotide): 2.1 pg/mL | Levels of MCP-1 ([3]; 0.0128 μM oligonucleotide): 297.6 pg/mL | Levels of TNF-α ([3]; 0.0128 μM oligonucleotide): 2.8 pg/mL | Levels of IL-6 ([3]; 0.064 μM oligonucleotide): 5.3 pg/mL | Levels of IL-10 ([3]; 0.064 μM oligonucleotide): 3.1 pg/mL | Levels of MCP-1 ([3]; 0.064 μM oligonucleotide): 385.9 pg/mL | Levels of TNF-α ([3]; 0.064 μM oligonucleotide): 3.5 pg/mL | Levels of IL-6 ([3]; 0.32 μM oligonucleotide): 12.3 pg/mL | Levels of IL-10 ([3]; 0.32 μM oligonucleotide): 3.5 pg/mL | Levels of MCP-1 ([3]; 0.32 μM oligonucleotide): 681.3 pg/mL | Levels of TNF-α ([3]; 0.32 μM oligonucleotide): 5.5 pg/mL | Levels of IL-6 ([3]; 1.6 μM oligonucleotide): 15.5 pg/mL | Levels of IL-10 ([3]; 1.6 μM oligonucleotide): 2.2 pg/mL | Levels of MCP-1 ([3]; 1.6 μM oligonucleotide): 693.9 pg/mL | Levels of TNF-α ([3]; 1.6 μM oligonucleotide): 6.8 pg/mL | Levels of IL-6 ([3]; 8 μM oligonucleotide): 57.4 pg/mL | Levels of IL-10 ([3]; 8 μM oligonucleotide): 4.2 pg/mL | Levels of MCP-1 ([3]; 8 μM oligonucleotide): 2306.8 pg/mL | Levels of TNF-α ([3]; 8 μM oligonucleotide): 13.6 pg/mL | Levels of IL-6 ([3]; 40 μM oligonucleotide): 63.3 pg/mL | Levels of IL-10 ([3]; 40 μM oligonucleotide): 4.7 pg/mL | Levels of MCP-1 ([3]; 40 μM oligonucleotide): 2974.9 pg/mL | Levels of TNF-α ([3]; 40 μM oligonucleotide): 28.1 pg/mL | Levels of IL-6 ([3]; 200 μM oligonucleotide): 64.8 pg/mL | Levels of IL-10 ([3]; 200 μM oligonucleotide): 4.0 pg/mL | Levels of MCP-1 ([3]; 200 μM oligonucleotide): 622.8 pg/mL | Levels of TNF-α ([3]; 200 μM oligonucleotide): 43.7 pg/mL | % inhibition of SMAD7 mRNA expression (murine Smad7 mRNA; 0.25 μM): 1% | % inhibition of SMAD7 mRNA expression (murine Smad7 mRNA; 0.74 μM): 1% | % inhibition of SMAD7 mRNA expression (murine Smad7 mRNA; 2.22 μM): 0% | % inhibition of SMAD7 mRNA expression (murine Smad7 mRNA; 6.67 μM): 0% | % inhibition of SMAD7 mRNA expression (murine Smad7 mRNA; 20.00 μM): 0% | IC50 (murine Smad7 mRNA): > 20 µM | % inhibition of SMAD7 mRNA expression (human SMAD7 mRNA [4]; 0.08 μM): 14% | % inhibition of SMAD7 mRNA expression (human SMAD7 mRNA [4]; 0.25 μM): 20% | % inhibition of SMAD7 mRNA expression (human SMAD7 mRNA [4]; 0.74 μM): 24% | % inhibition of SMAD7 mRNA expression (human SMAD7 mRNA [4]; 2.22 μM): 13% | % inhibition of SMAD7 mRNA expression (human SMAD7 mRNA [4]; 6.67 μM): 34% | % inhibition of SMAD7 mRNA expression (human SMAD7 mRNA [4]; 20.00 μM): 37% | IC50 (human SMAD7 mRNA [4]; SMAD7 mRNA): > 20 µM

771902 (antisense eG*eG*eG*eT*eT*d[5mC]*dT*d[5mC]*d[5mC]*dA*dG*d[5mC]*d[5mC]*dG*d[5mC]*eT*e[5mC]*eA*eG*eA) [compound 771902]
% inhibition of SMAD7 mRNA expression (human SMAD7 mRNA [5]; [7]): 0% | % inhibition of SMAD7 mRNA expression (human SMAD7 mRNA [5]; 1250.0 nM, Study 1): 17% | % inhibition of SMAD7 mRNA expression (human SMAD7 mRNA [5]; 5000.0 nM, Study 1): 29% | % inhibition of SMAD7 mRNA expression (human SMAD7 mRNA [5]; 20000.0 nM, Study 1): 59% | IC50 (human SMAD7 mRNA [5]; Study 1 (312.5-20000 nM)): 13 µM | % Inhibition (human SMAD7 mRNA [6]; Study 2, electroporation with 15,000 nM antisense oligonucleotide): 77%

771705 (antisense eA*eA*eT*eG*e[5mC]*d[5mC]*d[5mC]*dT*dT*dT*dG*dA*dG*dT*dT*eT*e[5mC]*e[5mC]*e[5mC]*e[5mC]) [compound 771705]
% inhibition of SMAD7 mRNA expression (human SMAD7 mRNA [5]; [7]): 0% | % inhibition of SMAD7 mRNA expression (human SMAD7 mRNA [5]; 1250.0 nM, Study 1): 0% | % inhibition of SMAD7 mRNA expression (human SMAD7 mRNA [5]; 5000.0 nM, Study 1): 0% | % inhibition of SMAD7 mRNA expression (human SMAD7 mRNA [5]; 20000.0 nM, Study 1): 9% | % inhibition of SMAD7 mRNA expression (human SMAD7 mRNA [6]; electroporation, 15,000 nM antisense oligonucleotide (Study 2)): 52%
